Changes are numbered by the printed parent chain. Where “and” joins values, the source holds several entries; their conditions need not be identical. Equal values may be shown once. Read-outs that look alike come from different tables or passages of the source.
Legend:
hTA1 C178S = molecular target: T1, hTA1 C178S (Homo sapiens, UniProt Q96RJ0, C178S); assay: GloSensor cAMP accumulation assay, C178S mutant; format: cell-based; conditions: log[Compound], single replicates
T1 construct: expressed in transfected cells; host or cells: HEK293T
T1 sequence (Q96RJ0 1-339 C178S): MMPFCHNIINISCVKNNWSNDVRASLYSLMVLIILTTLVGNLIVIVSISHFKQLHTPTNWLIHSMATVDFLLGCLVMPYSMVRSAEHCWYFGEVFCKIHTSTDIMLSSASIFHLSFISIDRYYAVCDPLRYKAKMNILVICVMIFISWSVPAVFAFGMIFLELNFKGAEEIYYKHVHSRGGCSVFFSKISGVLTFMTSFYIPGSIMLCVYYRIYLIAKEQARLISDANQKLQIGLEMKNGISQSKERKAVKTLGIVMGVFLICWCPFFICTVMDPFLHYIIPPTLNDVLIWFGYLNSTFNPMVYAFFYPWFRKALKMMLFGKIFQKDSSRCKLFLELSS

hTA1 V184P = molecular target: T2, hTA1 V184P (Homo sapiens, UniProt Q96RJ0, V184P); assay: GloSensor cAMP accumulation assay, V184P mutant; format: cell-based; conditions: for cAMP accumulation response, single replicate values (source data, Supplementary Figure 5): hTA1 V184P (N=2), log[Compound]
T2 construct: expressed in transfected cells; host or cells: HEK293T
T2 sequence (Q96RJ0 1-339 V184P): T1 sequence (Q96RJ0 1-339 C178S) with S178C, V184P

[1] = hTA1 V184P mutant minus WT average

CCc1[nH]nc(C(=O)Nc2ccc([C@H]3CNCCO3)cc2)c1C [ralmitaront]
C178S - Normalized Luminescence Counts (N=2) (hTA1 C178S; M = -7.522): 4.642 and 7.866 and 7.3986 and 13.4924 and 12.7145 and 13.5821
C178S - Normalized Luminescence Counts (N=2) (hTA1 C178S; M = -8): 1.277 and 2.445 and 2.959 and 5.594 and 6.073 and 4.936
C178S - Normalized Luminescence Counts (N=2) (hTA1 C178S; M = -8.522): -0.2183 and 0.7163 and 2.0247 and 0.7179 and 1.526 and 2.842
C178S - Normalized Luminescence Counts (N=2) (hTA1 C178S; M = -9): -0.3585 and 0.1555 and -0.03139 and 0.4785 and 0.3289 and 2.214
C178S - Normalized Luminescence Counts (N=2) (hTA1 C178S; M = -9.522): -1.433 and 1.137 and -0.6389 and -0.0001415 and -0.6284 and -0.3292
C178S - Normalized Luminescence Counts (N=2) (hTA1 C178S; M = -10): -1.1529 and -1.2 and -1.106 and 0.05969 and -0.9575 and -1.5259
C178S - Normalized Luminescence Counts (N=2) (hTA1 C178S; M = -10.522): -0.5454 and -0.2183 and -0.8258 and -2.334 and -1.855 and -2.154
C178S - Normalized Luminescence Counts (N=2) (hTA1 C178S; M = -11): -0.3585 and -0.2183 and -0.4987 and 0.6281 and 0.3589 and 0.4785
C178S - Normalized Luminescence Counts (N=2) (hTA1 C178S; M = -11.522): -0.3585 and -0.07812 and 0.1555 and 0.5384 and -0.08989 and -0.419
C178S - Normalized Luminescence Counts (N=2) (hTA1 C178S; M = -12): -0.966 (2×) and -0.3585 and -0.8079 and -2.005 and -0.9874
C178S - Normalized Luminescence Counts (N=2) (hTA1 C178S; M = -12.522): 1.09 and -0.2183 and -0.8725 and 0.3888 and -1.137 and -2.364
reduction in potency vs wild type (hTA1 V184P; V184P): 2.5 fold
Emax (hTA1 V184P; V184P, n=2, read-out: Span ± SEM (Emax normalized to β-PEA)): 48.73 ± 0.14%
cAMP accumulation response, single replicate values (source data, Supplementary Figure 5) (hTA1 V184P; M = -5): 56.1002 and 44.9467 and 51.6388 and 50.9599 and 51.6929 and 37.8383
cAMP accumulation response, single replicate values (source data, Supplementary Figure 5) (hTA1 V184P; M = -5.522): 38.6425 and 44.6557 and 34.0841 and 47.4046 and 55.1382 and 34.8694
cAMP accumulation response, single replicate values (source data, Supplementary Figure 5) (hTA1 V184P; M = -6): 32.8233 and 40.4853 and 30.6896 and 36.9953 and 42.3832 and 37.3618
cAMP accumulation response, single replicate values (source data, Supplementary Figure 5) (hTA1 V184P; M = -6.522): 24.4824 and 25.4523 and 22.4457 and 22.8108 and 28.9684 and 21.7112
cAMP accumulation response, single replicate values (source data, Supplementary Figure 5) (hTA1 V184P; M = -7): 14.7837 and 10.7102 and 14.2987 and 13.3178 and 19.622 and 12.4015
cAMP accumulation response, single replicate values (source data, Supplementary Figure 5) (hTA1 V184P; M = -7.522): 3.727 and 4.406 and 3.242 and 4.485 and 6.5 and 5.731
cAMP accumulation response, single replicate values (source data, Supplementary Figure 5) (hTA1 V184P; M = -8): 0.5265 and 1.302 and 1.5934 and 2.432 and 2.322 and 1.296
cAMP accumulation response, single replicate values (source data, Supplementary Figure 5) (hTA1 V184P; M = -8.522): 0.2356 and -0.3463 and -0.05538 and 1.699 and 1.076 and 0.2329
cAMP accumulation response, single replicate values (source data, Supplementary Figure 5) (hTA1 V184P; M = -9): 0.3326 and -0.2494 and -1.025 and -0.1703 and -0.2803 and -0.5368
cAMP accumulation response, single replicate values (source data, Supplementary Figure 5) (hTA1 V184P; M = -9.522): -0.8313 and -0.9283 and -1.316 and -0.5002 and -0.3902 and -0.3169
cAMP accumulation response, single replicate values (source data, Supplementary Figure 5) (hTA1 V184P; M = -10): -1.122 (2×) and -0.3463 and -0.94 and -0.3902 and -1.3432
cAMP accumulation response, single replicate values (source data, Supplementary Figure 5) (hTA1 V184P; M = -10.522): -0.9283 and -1.025 and -1.219 and -0.9034 and -1.123 and -1.673
cAMP accumulation response, single replicate values (source data, Supplementary Figure 5) (hTA1 V184P; M = -11): -0.9283 and -1.607 (2×) and -0.3902 (2×) and -0.1703
cAMP accumulation response, single replicate values (source data, Supplementary Figure 5) (hTA1 V184P; M = -11.522): -1.607 (2×) and -1.898 and 0.746 and -0.02371 and -0.5002
cAMP accumulation response, single replicate values (source data, Supplementary Figure 5) (hTA1 V184P; M = -12): -1.607 and -1.219 and -1.51 and -0.6835 and 0.4894 and -0.5735
cAMP accumulation response, single replicate values (source data, Supplementary Figure 5) (hTA1 V184P; M = -12.522): -0.7343 and -1.4132 and -1.025 and -0.6835 and -0.7568 and -1.087
ΔEmax values (each mutant value - WT average), Mean (hTA1 V184P; [1]): 8.48 and 8.751
ΔpEC50 values (each mutant value - WT average), Mean (hTA1 V184P; [1]): -0.4311 and -0.3552
Emax values, Mean (hTA1 V184P; hTA1 V184P mutant, β-PEA set to 100, each grid row a separate experiment, 3 replicates): 48.8655
Emax (hTA1 V184P; hTA1 V184P mutant, β-PEA set to 100, each grid row a separate experiment, 3 replicates, read-out: Emax values (Mean)): 48.6%
